According to patent publication US20240142382A1, “METHODS AND COMPOSITIONS FOR CALIBRATED LABEL-FREE SURFACE-ENHANCED RAMAN SPECTROSCOPY” (Virginia Tech Intellectual Properties, Inc., priority 2021, published 2024):

Experiments:
HCC-1806 cells = experiment: label-free SERS mapping with PLS-DA of living cells treated with PTX dosages; type: cell-based, human; conditions: 1.5 nM, 5 nM and 15 nM PTX, HCC-1806, after ERS calibration
HCC-1806 = HCC-1806 triple-negative breast cancer cells; read-out: half-maximal inhibition concentration (IC50); cited from earlier work
MDA-MB-231 cells = experiment: label-free SERS mapping with PLS-DA of living cells treated with PTX dosages; type: cell-based, human; conditions: 1.5 nM PTX, MDA-MB-231, PLS-DA after ERS calibration

Structure (SMILES): CC(=O)O[C@H]1C(=O)[C@@]2(C)[C@H]([C@H](OC(=O)c3ccccc3)[C@]3(O)C[C@H](OC(=O)[C@H](O)[C@@H](NC(=O)c4ccccc4)c4ccccc4)C(C)=C1C3(C)C)[C@]1(OC(C)=O)CO[C@@H]1C[C@@H]2O [PTX, paclitaxel]
- separation of PLS-DA scatters of control group (0 nM) from PTX treated groups (HCC-1806 cells): completely separate
- IC50 (HCC-1806): 1.5 nM
- changes of SERS-measured molecular profiles versus control group (0 nM) (MDA-MB-231 cells): not enough to elicit significant changes
